Paper PMC11203576 (International Journal of Molecular Sciences, 2024)

Target: MVL (rMVL) (Microcystis viridis, UniProt Q9RHG4)
Type: binding

Chain of MVL (rMVL) (Q9RHG4 2-114 limits assumed): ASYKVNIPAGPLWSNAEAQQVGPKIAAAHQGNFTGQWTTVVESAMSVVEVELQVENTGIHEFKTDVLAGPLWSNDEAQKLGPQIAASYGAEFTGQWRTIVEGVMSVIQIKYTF

## OC[C@H]1OC(O)[C@H](O)[C@@H](O)[C@H]1O (stereo partly shown) [galactose]
  % SPR signal retained at 100 mM: ~ 40%
